Legend:
[1] = molecular target: T1, Dm-piRMT (Drosophila melanogaster, UniProt Q7K175); assay: Metal ion requirement of piRMT methylation of ssRNA miR173.1 (NaIO4/β-elimination, PAG autoradiography); assay type: biochemical; set-up: modification efficiency towards RNA substrates with different 3′ terminal nucleotides (U, C, A, G): dose or concentration left out as unconfirmed
T1 sequence (Q7K175 1-391): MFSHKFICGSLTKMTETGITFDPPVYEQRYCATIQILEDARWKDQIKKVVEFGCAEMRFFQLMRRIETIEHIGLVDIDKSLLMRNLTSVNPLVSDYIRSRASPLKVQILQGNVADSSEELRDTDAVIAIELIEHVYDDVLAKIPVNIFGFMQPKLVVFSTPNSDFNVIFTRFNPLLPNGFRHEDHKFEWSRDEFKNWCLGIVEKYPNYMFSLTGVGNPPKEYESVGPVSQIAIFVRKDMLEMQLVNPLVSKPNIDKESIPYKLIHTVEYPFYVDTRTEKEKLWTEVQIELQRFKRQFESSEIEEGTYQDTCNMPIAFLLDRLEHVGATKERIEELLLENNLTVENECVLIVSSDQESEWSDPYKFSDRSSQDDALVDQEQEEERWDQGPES
Description: To test the requirement of different metal cofactors, 20 μl reaction volumes, containing reaction buffer [10 mM Tris-HCl (pH 7.4), 50 mM NaCl, 0.1 mg/ml BSA, 5% (v/v) glycerol and 0.05 u/μl RiboLock (Thermo Scientific)], 0.2 μM ^32P-labelled miR173.1 (5′-[…]-3′, 22 nt) (SEQ ID NO: 3), 0.1 mM AdoMet, […] After 30 min of incubation at 37° C., the degree of modification was determined by NaIO4/β-elimination reaction, during which RNA was treated with 0.2 mM NaIO4 in borax/boric acid buffer [0.06 M, pH 8.6] for 15 min followed by 75 min incubation in borax/boric acid buffer II [0.06 M pH 9.6] at 42° C. Reaction samples were analyzed in 13% denaturing polyacrylamide gel (PAG) and autoradiographed. Fractions of methylated RNA, represented by bands with lower electrophoretic mobility, were evaluated using Multi Gauge version 3.0 software (Fujifilm). The depletion of metal ions by EDTA in the reaction mixture, together with the sample without any metal cofactor added, further confirms that the effective piRMT methylation is due to Co^2+ and Co^3+ ions. B. Column-diagram of RNA methylation efficiency with different metal cofactors. Results are average of duplicate experiments±S.D.
B. Column-diagram of modification efficiency of miR173.1 with different 3′ terminal nucleotides. Results are average of two experiments±S.D.

[2] = molecular target: T2, Hs-piRMT (Homo sapiens, UniProt Q5T8I9); assay: as above; assay type: biochemical; details: 10 mM metal ion, 1 μM piRMT, 0.2 μM miR173.1, 0.1 mM AdoMet, 30 min, 37° C.
T2 sequence (Q5T8I9 whole entry): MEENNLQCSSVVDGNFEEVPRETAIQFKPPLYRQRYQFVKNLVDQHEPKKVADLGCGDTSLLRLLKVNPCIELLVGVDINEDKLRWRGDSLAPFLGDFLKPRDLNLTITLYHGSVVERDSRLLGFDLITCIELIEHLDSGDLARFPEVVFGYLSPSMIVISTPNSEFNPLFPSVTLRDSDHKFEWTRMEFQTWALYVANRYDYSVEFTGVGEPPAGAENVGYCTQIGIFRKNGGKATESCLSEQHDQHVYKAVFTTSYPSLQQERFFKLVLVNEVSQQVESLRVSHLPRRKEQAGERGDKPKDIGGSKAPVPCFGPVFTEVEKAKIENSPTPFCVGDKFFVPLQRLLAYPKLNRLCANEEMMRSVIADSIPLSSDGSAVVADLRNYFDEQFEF
Description: To test the requirement of different metal cofactors, 20 μl reaction volumes, containing reaction buffer [10 mM Tris-HCl (pH 7.4), 50 mM NaCl, 0.1 mg/ml BSA, 5% (v/v) glycerol and 0.05 u/μl RiboLock (Thermo Scientific)], 0.2 μM ^32P-labelled miR173.1 (5′-[…]-3′, 22 nt) (SEQ ID NO: 3), 0.1 mM AdoMet, 10 mM metal ion and 1 μM of piRMT proteins' were mixed. After 30 min of incubation at 37° C., the degree of modification was determined by NaIO4/β-elimination reaction, during which RNA was treated with 0.2 mM NaIO4 in borax/boric acid buffer [0.06 M, pH 8.6] for 15 min followed by 75 min incubation in borax/boric acid buffer II [0.06 M pH 9.6] at 42° C. Reaction samples were analyzed in 13% denaturing polyacrylamide gel (PAG) and autoradiographed. Fractions of methylated RNA, represented by bands with lower electrophoretic mobility, were evaluated using Multi Gauge version 3.0 software (Fujifilm). The depletion of metal ions by EDTA in the reaction mixture, together with the sample without any metal cofactor added, further confirms that the effective piRMT methylation is due to Co^2+ and Co^3+ ions. B. Column-diagram of RNA methylation efficiency with different metal cofactors. Results are average of duplicate experiments±S.D.

[3] = molecular target: T2, Hs-piRMT; details: Mn2+ as metal cofactor; cited from earlier work

Row | SMILES | degree of methylation of ssRNA substrate with metal ion cofactor ([1]; 10 mM metal ion, 1 μM piRMT, 0.2 μM miR173.1, 0.1 mM AdoMet, 30 min, 37° C.) | modification efficiency towards RNA substrates with different 3′ terminal nucleotides (U, C, A, G) ([1]; Co2+ as metal cofactor, miR173.1 variants) | degree of methylation of ssRNA substrate with metal ion cofactor [2] | RNA modification level in presence of metal ion [3]
1 | [Co+2] [Co^2+] | full methylation | equally effective modification | full methylation | –
2 | [Mn+2] [Mn^2+] | – | – | – | seemingly low levels

Reference: patent US11008605B2, “Analysis of single-stranded RNA” (VILNIUS UNIVERSITY, priority 2015, dated 2021)
